Laboratory results published in patent publication US10155766B2, “Pyrazolopyrimidine antibacterial agents” (priority 2016, dated 2018).

Key:
[1] = test system: Burkholderia thailandensis (E 264); test: microbe, parasite or virus in culture; format: cell-based; conditions: Burkholderia thailandensis, read-out: Zone of inhibition (diameter, in millimeter) B. thailandensis; for zone of inhibition at 100 µM: Conc. 0.1 mM; for zone of inhibition at 500 µM: Conc. 0.5 mM; for zone of inhibition at 1000 µM: Conc. 1.0 mM
[2] = test system: Pseudomonas aeruginosa (ATCC 27853); test: microbe, parasite or virus in culture; format: cell-based; conditions: Pseudomonas aeruginosa, ATCC27853, read-out: Zone of inhibition (diameter, in millimeter) P. aeruginosa; for zone of inhibition at 100 µM: Conc. 0.1 mM; for zone of inhibition at 500 µM: Conc. 0.5 mM; for zone of inhibition at 1000 µM: Conc. 1.0 mM
BtIspE = format: binding, Burkholderia thailandensis

Structure (SMILES)	melting point [°C]	zone of inhibition at 100 µM [1] [mm]	zone of inhibition at 500 µM [1] [mm]	zone of inhibition at 1000 µM [1] [mm]	zone of inhibition at 100 µM [2] [mm]	zone of inhibition at 500 µM [2] [mm]	zone of inhibition at 1000 µM [2] [mm]	STD-NMR binding to BtIspE (in words) (BtIspE)
Cn1ncc2c(NCCc3c[nH]c4ccccc34)ncnc21	183 to 185	–	–	–	–	–	–	–
CC(C)(C)n1ncc2c(NCCO)ncnc21 [Compound 4]	75 to 77	0	8	12	0	12	20	–
CCOC(=O)CNc1ncnc2c1cnn2C [Compound 5]	141 to 142	0	8	12	0	0	13	–
CC(C)Nc1ncnc2c1cnn2C [Compound 6]	101 to 103	0	13	21	0	0	10	–
Cn1ncc2c(NCc3ccco3)ncnc21 [Compound 7]	141 to 143	0	0	20	0	0	0	–
CC(C)(C)n1ncc2c(NCc3ccco3)ncnc21 [Compound 8]	101 to 103	0	12	14	0	6	12	–
Cn1ncc2c(NCc3ccccc3)ncnc21 [Compound 9]	–	0	0	12	0	0	0	–
C[C@H](Nc1ncnc2c1cnn2C)c1ccccc1 [Compound 10]	201 to 203	0	11	19	0	8	14	–
CC(C)(C)n1ncc2c(NCc3ccccc3)ncnc21 [Compound 11]	158 to 160	0	12	18	0	0	0	–
Cn1ncc2c(NCc3ccccc3F)ncnc21 [Compound 13]	184 to 185	0	8	13	0	12	18	–
Cn1ncc2c(NCc3cccc(F)c3)ncnc21 [Compound 14]	176 to 177	0	6	11	0	10	15	high % STD values
CC(C)(C)n1ncc2c(NCc3cccc([N+](=O)[O-])c3)ncnc21 [Compound 15]	135 to 137	0	12	16	0	13	17	–
